Results: US11312925B2, “Pyrithione preservative system and C1-C12 ethoxylated alcohol in hard surface cleaning products” (ECOLAB USA INC., priority 2015, dated 2022)

Assays:
[1] = Compatibility in solution with 4500 MW polyacrylic acid polymer under acidic conditions; format: physicochemical
[2] = test system: Yeast and mold cocktail (Canidia albicans ATCC 10231, Saccharomyces cerevisiae ATCC 834, Aspergillus niger ATCC 16404); assay: Preservative test over 28 days in 7 and 18.5 grain water, yeast and mold counts (Example 5); format: cell-based; conditions: 140 ppm with 2000 ppm monosodium citrate versus 200 ppm bis (3-aminopropyl) dodecylamine in hard water
Protocol: For USP bacteria there must be no less than 2.0 log reduction from the initial inoculated count at 14 days, and no increase from the 14 days' count at 28 days. A result of “no increase” is defined as not more than 0.5 log higher than previous value. For additional standards examined the preservation capability of a composition is evaluated over a predetermined time (as identified in the Example) and the inhibition or reduction of microbial growth is assessed, without the requirement for complete elimination of the entire microbial inoculum.
The survival of both bacterial cocktail and fungal cocktails (as described in prior Example) were monitored over 28 days.
The yeast and mold inoculum was made up of equal parts of the organisms listed (incubated in sabourand agar at 26° C. for 3 days):

[3] = test system: yeast and mold inoculum cocktail (Canidia albicans ATCC 10231, Saccharomyces cerevisiae ATCC 834, Aspergillus niger ATCC 16404); conditions: over 3 weeks in sump solution; compared with the other evaluated preservatives; FIG. 1
Protocol: In order to identify preservative systems for replacing Kathon CG-ICP (isothiazolinone blend) from solid rinse aid formulations, various potential preservatives were evaluated.
For performance reasons, the preservatives were tested with the 4500 MW polyacrylic acid polymer and 10% level of monosodium citrate or fumaric acid.
The test temperature was ambient (20° C.-26° C.) and exposure times were 0, 7, 14, 28 and 35 days.
The preservatives were formulated at their upper concentration levels before triggering the use of personal protective equipment and measured fungi recovered and pH.

[4] = test system: Bacterial cocktail (Staphylococcus aureus ATCC 6538, Escherichia coli ATCC 11229, Enterobacter aerogenes ATCC 13048, Burkholderia cepacia ATCC 25416 …); assay: Preservative test over 28 days in 7 and 18.5 grain water, bacterial counts (Example 5); format: cell-based; conditions: 140 ppm with 2000 ppm monosodium citrate versus 300 ppm with no added acidity

| behaviour in solution with the 4500 MW polyacrylic acid polymer [1] | Structure (SMILES) | preservation performance, comparison [2] | impact at reducing fungi (mean log fungi reduction) [3] | inhibition of microorganisms (especially bacteria), comparison [4] |
| --- | --- | --- | --- | --- |
| precipitate out of solution | CCCCCCCCCCCCN(CCCN)CCCN [bis (3-aminopropyl) dodecylamine, Bis (3-aminopropyl) dodecylamine] | – | – | – |
| – | On1ccccc1=S.[Na] [sodium pyrithione, 1-hydroxy-2(1H)-pyridinethione, sodium salt] | outperformed | greatest impact at reducing fungi | much more effective at inhibiting microorganisms |
